Data: patent US9770045B2, “Preservation of animal feed and hydrolysis of polysaccharides using amino acids as salts or with acids” (priority 2015, dated 2017)
Counter-ions that a name gives are not always drawn.

Columns and labels:
[1] = 60° C., one hour (FIG. 3)
Description: (§1) Seaweed Hydrolysis. […] The samples were heated to 60° C. Approximately 0.1 grams of seaweed was measured and added to each sample. The acid/seaweed mixtures were placed in an incubator set at 60° C. for one hour. At twenty minute intervals, 0.4 mL were taken from the samples and neutralized to a high pH (>10) with 0.6 mL of a concentrated aqueous NaOH solution.
(§2) Seaweed DNS Assay. To each of the neutralized mixtures, 0.2 mL of DNS solution (1% dinitrosalicyclic acid, 0.02% phenol, 0.25 M NaOH) was added. These samples were then placed in boiling water for approximately ten minutes until the brown color remained stable. The samples were then removed and 0.4 mL of a 40% potassium sodium tartrate solution was added to stabilize the color. The solutions were allowed to cool to room temperature and then the absorbance was recorded at 570 nm.

[2] = for rate in hydrolyzing switch grass: 60° C., one hour (FIG. 4)
Description: as §1, with “Switch Grass” for “Seaweed”, “switch grass” for “seaweed”, “acid/switch grass” for “acid/seaweed”, “0, 10, 20, 40, and 60 minutes,” for “twenty minute intervals,”
as §2, with “Switch Grass” for “Seaweed”, “Then 0.2 mL of each sample was mixed with 0.2” for “The samples were then removed and 0.4”, “and 1 mL of deionized water.” for “was added to stabilize the color.”

[3] = Cellulose (carboxymethylcellulose) hydrolysis, DNS sugar assay; details: carboxymethylcellulose (FIG. 2, FIG. 5)
Description: Dinitrosalicyclic Acid Sugar Assay. The DNS sugar assay utilizes the reduction of dinitrosalicyclic acid by simple monosaccharides to create a change in color, respective the concentration of sugar in each sample (Rivers). A 1% dinitrosalicyclic acid solution was created with 0.25 M NaOH and […]. Another solution of 40% Sodium Potassium Tartrate was made to act as a color stabilizer to be added to the sample after the reaction. This procedure requires the experimental sample to be mixed with the DNS Assay solution and heated at approximately 100° C. for ten minutes. After the colorimetric reaction has occurred, the sodium potassium tartrate solution is added to stabilize the color change. The resulting color change can be measured using the wavelength of 570 nm.
Cellulose Hydrolysis. 5 mL of each acid was added to a glass container. Then, 0.1 grams of carboxymethylcellulose was slowly poured in to each sample. The containers were then capped and placed in a 60° C. incubator. At specific time intervals, 0.4 mL were taken and neutralized by 0.6 mL of a strong KOH solution to a pH above 10 in 1.5 mL microfuge tubes. Then 0.2 mL of the DNS Assay solution was added to each sample, which were then placed in a boiling water bath for ten minutes. […] The absorbance of the samples were then measured at 570 nm in a UV-Vis spectrophotometer and compared to a standard curve.

Row | Structure (SMILES) | rate in hydrolyzing seaweed [1] | rate in hydrolyzing switch grass [2] | pH change after switch grass hydrolysis [2] | hydrolysis rate [3]
1 | Cl [6M HCl, hydrochloric acid, reference compound] | about the same rate | about the same rate | increased | –
2 | NCC(=O)O [6M Glycine—HCl, glycine hydrochloride] | about the same rate | about the same rate | lowered | equal to that of Oil Safe AR®
